From publication PMC9168271, “Discovery of Novel Tetrahydro-β-carboline Containing Aminopeptidase N Inhibitors as Cancer Chemosensitizers” (Frontiers in Oncology, 2022)

Experiments:
MDA-MB-231 cells [1] = test: MTT antiproliferative assay, chemotherapeutic drug with APN inhibitor; type: cell-based, human; details: for antiproliferative activity of chemotherapeutic drugs in combination with APN inhibitor: with PTX, EPB, CTX, CBP, 48 h
From the text: (§1) The combination of APN inhibitor and paclitaxel (PTX), has been employed for the treatment of human breast cancer. In the current study, molecules with good APN inhibitory potency (D12, D14 and D16) were selected and used in combination with several chemotherapeutic drugs, such as PTX, EPB, cyclophosphamide (CTX) and carboplatin (CBP) to investigate its inhibitory effect on breast cancer. Human triple negative breast cancer cell (TNBC) lines MDA-MB-231 and MDA-MB-468 were utilized in the in vitro studies. […] It was also observed that the synthesized molecules enhanced chemotherapeutic drug sensitivity in a dose dependent manner. Therefore, further analysis was performed to examine the synergistic effects of the derived APN inhibitors and chemotherapeutic drugs.
(§2) Then, 10μL of MTT solution (5 mg/mL) were added to each well. After incubation for 4h, the medium was carefully removed, and 100 μL DMSO was added to each well and fully dissolved in vibration for 10min. The optical density (OD) at 490 nm and 630 nm were measured with a microplate Spectrophotometer (M5, MD). IC50 values were obtained from at least 3 independent experiments.

MDA-MB-468 cells [2] = test: as above; type: cell-based, human; details: for antiproliferative activity of chemotherapeutic drugs in combination with APN inhibitor: with PTX, EPB, CTX, CBP, 48 h
From the text: as §1, §2

[3] = system: CD13 (APN) expression in MDA-MB-231 cells; test: Flow cytometry of APN expression; type: cell-based, human; details: 48 h
Procedure: (§3) The cells were seeded in 6-well plates (4 × 10^5 cells/well) and treated with tested compounds for 48 h. Then, cells were collected into 1.5 mL EP tubes, washed twice with PBS, and centrifuged at 2500rpm for 5minutes. Cells were resuspended with 100μlof PBS, then 2μL/tube of APN antibody was added, followed by incubation in dark for 30 minutes at 4°C. Then the cells were subjected to flow cytometry (FACSAria II, Becton-Dickinson) for the expression of APN.

[4] = system: CD13 (APN) expression in MDA-MB-468 cells; test: Flow cytometry of APN expression; type: cell-based, human; details: 48 h
Procedure: as §3

MDA-MB-231 cells [5] = test: Apoptosis analysis (Annexin V-FITC/PI); type: cell-based, human; details: 48 h
Procedure: (§4) Moreover, APN inhibitor-induced chemo-sensitization had been frequently reported for PTX ([17], [29]). Therefore, the combination of PTX-APN inhibitor was selected in the subsequent studies.
(§5) The cells were seeded in 6-well plates (3 × 10^5 cells/well) and treated with various compounds for 48 h. Then, cells were collected and washed twice with cold PBS. Annexin V-FITC staining solution was then added to the cells, and cells were incubated at 2-8°C for 15 minutes under dark conditions. Then, PI staining solution was added by gentle mix at 2-8°C. After 5 minutes of incubation under dark conditions, cells were tested with flow cytometry immediately.

MDA-MB-468 cells [6] = test: Apoptosis analysis (Annexin V-FITC/PI); type: cell-based, human; details: 48 h
Procedure: as §4, §5

MDA-MB-231 cells [7] = test: Spheroid-formation assay; type: cell-based, human; details: 1 nM PTX + 1 µM APN inhibitor, 7 days
Procedure: (§6) Cancer stem cells (CSCs) play an important role in the resistance of cancer cells to chemotherapeutic drugs. APN has been reported to be a therapeutic target in human cancer stem cells ([18]). Therefore, the CSC based test was performed in the present study. Colony-formation assay and spheroid-formation assay are two commonly used methods to assess the capacity of CSCs in vitro. In the spheroid-formation assay, MDA-MB-231 and MDA-MB-468 cells were dispersed into single cells, inoculated into low-adherence 6-well plates, and added with stem cell sphere medium. The stem cell spheres became visible after 5-6 days incubation. […] It is known that mRNA levels of the stem cell biomarkers OCT-4, SOX-2 and Nanog are associated with the characteristics of TNBC stem cells ([30]). Therefore, RT-PCR was performed on the TNBC cells to detect the mRNA levels of these markers.
(§7) MDA-MB-231 cells and MDA-MB-468 cells in logarithmic growth phase were collected, stem cell sphere culture medium without serum (containing 50X B-27Supplement,100X N-2 Supplement,20 μg/L epidermal growth factor (EGF), 20µg/L insulin-like growth factor (IGF-1), 10 μg/L fibroblast growth factor (b-FGF), 20X Knock Out SR, 2mM L-Glutamine, 5mg/L Heparin sodium, 1X PENICILLIN-STREPTOMYCIN and DMEM: F12 (1:1) medium was added for the re-suspension and fully blown into single-cell suspension. The cells were diluted to 5,000/2 mL, with stem cell sphere culture medium, and cultured in a 37°C, 5% CO2 cell incubator. The number of stem cell spheres were observed every day. […]

MDA-MB-468 cells [8] = test: Spheroid-formation assay; type: cell-based, human; details: 1 nM PTX + 1 µM APN inhibitor, 7 days
Procedure: as §6, §7

MDA-MB-231 cells [9] = test: Colony-formation assay; type: cell-based, human; details: 0.2 nM PTX + 1 µM APN inhibitor, 14 days
Procedure: as §6
(§8) 3000 cells were suspended in 2 mL medium, and seeded into the wells of six-well plate. After 12 hours of incubation, cells were treated with various compounds. Until each colony had more than 50 cells, this experiment terminated. Cells were washed twice with PBS and fixed with methanol for 10minutes. Then cells were stained with 1% crystal violet for 5minutes. Finally, colonies were washed and pictures were taken under a microscope (IX81, Olympus).

MDA-MB-468 cells [10] = test: Colony-formation assay; type: cell-based, human; details: 0.2 nM PTX + 1 µM APN inhibitor, 14 days
Procedure: as §6, §8

[11] = system: luciferase-expressing MDA-MB-231 cells; test: In vivo anticancer study, xenograft model in female nude mice; details: 20 mg/kg/d APN inhibitor + 10 mg/kg/3 days PTX; 3 weeks; n = 4
Procedure: To evaluate the in vivo anticancer potency of the combination of PTX-APN inhibitor, cancer xenograft model was established by inoculation of luciferase- expressing MDA-MB-231 cells to female nude mice. About 1×10^7 MDA-MB-231 cells were injected subcutaneously into the right fat pad of the fourth mammary gland of the mice. […] Significant tumor size variations were observed among different groups ( Figures 5A, B ). […] Moreover, no clear signs of toxicity in liver and spleen were detected in the sacrificed mice.
Female Nude mice aged 3 weeks were purchased from Hunan SJA Experimental Animal Company and raised under SPF aseptic conditions. About 1×10^7 luciferase overexpressing MDA-MB-231 cells were injected subcutaneously into the right fat pad of the fourth mammary gland of each mouse. […] PBS group animals received PBS via intraperitoneal injection, while 10 mg/kg/3 days of PTX was administered to animals in the PTX group. […] After 3 weeks of administration, each mouse was intraperitoneally injected with 200uL of fluorescein substrate (d-fluorescein potassium salt, 150mg/kg), and then anesthetized with isoflurane. In vivo fluorescence imaging system (IVIS Spectrum, PerkinElmer) and SlideBook4.0 software were utilized for the result analysis. After the imaging analysis, mice were sacrificed and dissected for the detection of tumor size and calculation of liver/spleen indexes. All animal experiments were approved by the Animal Care and Use Committee of Weifang Medical University.

[12] = molecular target: Aminopeptidase N (APN, CD13) (Homo sapiens, UniProt P15144); test: APN enzyme inhibitory assay, supernatant of K562-CD13 cells as enzyme source, L-leucine-p-nitro anilide substrate; details: for inhibition at 30 µM: read-out: Inhibitory rate (%);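 as to all read-outs here: substrate L-leucine-p-nitro anilide used at 1.6 mM, with enzyme from sonicated APN-overexpressing K562 cell lysate supernatant, run in 96-well plates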
Procedure: In the enzyme inhibitory assay, K562-CD13 monoclonal cells were used as APN enzyme source as described in our previous work ([27]).
K562 cells with overexpression of APN were added into PBS for ultrasonic crushing, centrifuged for 10 minutes, and supernatant was taken as enzyme source and added into 96-well plate. Different concentrations of compounds were added subsequently, and 1.6 mM L-leucine-p-nitro anilide was used as substrate. After 30 minutes of reaction, the APN enzyme activity was measured at 405 nm absorbance. The inhibition rate of APN activity was analyzed by the formula (Od control OD tested)/Od control 100%.

MDA-MB-231 cells [13] = test: Cellular reactive oxygen species detection (DCFH-DA, flow cytometry); type: cell-based, human; details: PTX alone, 48 h
MDA-MB-468 cells [14] = test: as above; type: cell-based, human; details: PTX alone, 48 h

Chain of Aminopeptidase N (APN, CD13) (P15144 whole entry): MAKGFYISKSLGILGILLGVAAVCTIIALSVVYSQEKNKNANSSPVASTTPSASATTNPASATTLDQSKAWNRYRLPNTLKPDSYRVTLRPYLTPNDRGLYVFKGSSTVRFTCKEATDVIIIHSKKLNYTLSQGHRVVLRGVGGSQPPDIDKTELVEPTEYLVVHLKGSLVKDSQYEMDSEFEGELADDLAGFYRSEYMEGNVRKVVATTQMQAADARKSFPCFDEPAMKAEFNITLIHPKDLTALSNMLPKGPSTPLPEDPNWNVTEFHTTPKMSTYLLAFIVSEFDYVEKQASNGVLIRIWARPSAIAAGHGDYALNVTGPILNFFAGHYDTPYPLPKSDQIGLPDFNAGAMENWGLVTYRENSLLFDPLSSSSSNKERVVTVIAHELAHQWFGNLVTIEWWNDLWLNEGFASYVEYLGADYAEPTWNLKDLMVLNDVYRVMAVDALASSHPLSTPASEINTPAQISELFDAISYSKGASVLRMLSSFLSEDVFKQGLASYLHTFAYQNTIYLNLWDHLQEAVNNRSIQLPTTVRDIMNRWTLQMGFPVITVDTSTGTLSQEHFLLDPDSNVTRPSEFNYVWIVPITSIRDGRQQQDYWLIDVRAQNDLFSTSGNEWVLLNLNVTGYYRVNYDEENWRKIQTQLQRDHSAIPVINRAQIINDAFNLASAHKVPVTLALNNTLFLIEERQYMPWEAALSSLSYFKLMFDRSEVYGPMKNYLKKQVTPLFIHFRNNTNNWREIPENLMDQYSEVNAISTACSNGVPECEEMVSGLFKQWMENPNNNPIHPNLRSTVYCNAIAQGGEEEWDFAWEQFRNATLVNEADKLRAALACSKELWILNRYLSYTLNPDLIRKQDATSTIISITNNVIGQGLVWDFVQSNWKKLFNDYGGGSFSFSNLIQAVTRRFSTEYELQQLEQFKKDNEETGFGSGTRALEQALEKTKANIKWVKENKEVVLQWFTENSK

Row | SMILES | IC50 [12] [µM] | inhibition at 30 µM [12] [%] | antiproliferative activity of chemotherapeutic drugs in combination with APN inhibitor (MDA-MB-231 cells [1]) | antiproliferative activity of chemotherapeutic drugs in combination with APN inhibitor (MDA-MB-468 cells [2]) | APN expression, combination with PTX compared with paclitaxel alone [3] | APN expression, combination with PTX compared with paclitaxel alone [4] | apoptotic rate in combination with PTX, compared with Bestatin (MDA-MB-231 cells [5]) | apoptotic rate in combination with PTX, compared with Bestatin (MDA-MB-468 cells [6]) | number of tumor spheres formed, compared with control and PTX alone (MDA-MB-231 cells [7]) | number of tumor spheres formed, compared with control and PTX alone (MDA-MB-468 cells [8]) | colony formation, compared with control and single PTX (MDA-MB-231 cells [9]) | colony formation, compared with control and single PTX (MDA-MB-468 cells [10]) | anticancer effect of PTX (tumor weight) compared with single PTX administration group [11] | inhibitory rate (tumor), in combination with PTX [11] [%] | inhibitory potency among the tested chemotherapeutic drugs (MDA-MB-231 cells [1]; chemotherapeutic drug) | inhibitory potency among the tested chemotherapeutic drugs (MDA-MB-468 cells [2]; chemotherapeutic drug) | APN expression relative to untreated control ([3]; PTX alone) | APN expression relative to untreated control ([4]; PTX alone) | ROS levels compared to control group (MDA-MB-231 cells [13]) | ROS levels compared to control group (MDA-MB-468 cells [14])
1 | CC(C)C[C@H](NC(=O)[C@@H](O)[C@H](N)Cc1ccccc1)C(=O)O [Bestatin, reference compound] |  | 53.9 ± 0.77 |  |  | decreased APN expression | decreased APN expression |  |  | significant decrease in the number of tumor spheres | significant decrease in the number of tumor spheres |  |  | improved the anticancer effect of PTX | 10.63 |  |  |  |  |  | 
2 | CC(=O)O[C@H]1C(=O)[C@@]2(C)[C@H]([C@H](OC(=O)c3ccccc3)[C@]3(O)C[C@H](OC(=O)[C@H](O)[C@@H](NC(=O)c4ccccc4)c4ccccc4)C(C)=C1C3(C)C)[C@]1(OC(C)=O)CO[C@@H]1C[C@@H]2O [PTX, Paclitaxel, reference compound] |  |  |  |  |  |  |  |  |  |  |  |  |  |  | highest inhibitory potency | highest inhibitory potency | up-regulated APN expression | up-regulated APN expression | increased ROS levels | increased ROS levels

Now from value to compound, other results behind:

Row | IC50 [12] [µM] | inhibition at 30 µM [12] [%] | SMILES | antiproliferative activity of chemotherapeutic drugs in combination with APN inhibitor (MDA-MB-231 cells [1]) | antiproliferative activity of chemotherapeutic drugs in combination with APN inhibitor (MDA-MB-468 cells [2]) | APN expression, combination with PTX compared with paclitaxel alone [3] | APN expression, combination with PTX compared with paclitaxel alone [4] | apoptotic rate in combination with PTX, compared with Bestatin (MDA-MB-231 cells [5]) | apoptotic rate in combination with PTX, compared with Bestatin (MDA-MB-468 cells [6]) | number of tumor spheres formed, compared with control and PTX alone (MDA-MB-231 cells [7]) | number of tumor spheres formed, compared with control and PTX alone (MDA-MB-468 cells [8]) | colony formation, compared with control and single PTX (MDA-MB-231 cells [9]) | colony formation, compared with control and single PTX (MDA-MB-468 cells [10]) | anticancer effect of PTX (tumor weight) compared with single PTX administration group [11] | inhibitory rate (tumor), in combination with PTX [11] [%] | inhibitory potency among the tested chemotherapeutic drugs (MDA-MB-231 cells [1]; chemotherapeutic drug) | inhibitory potency among the tested chemotherapeutic drugs (MDA-MB-468 cells [2]; chemotherapeutic drug) | APN expression relative to untreated control ([3]; PTX alone) | APN expression relative to untreated control ([4]; PTX alone) | ROS levels compared to control group (MDA-MB-231 cells [13]) | ROS levels compared to control group (MDA-MB-468 cells [14])
3 | 8.92 ± 0.38 | 74.9 ± 4.35 | O=C(Cn1c2c(c3ccccc31)CCN(C(=O)c1cccc(F)c1)C2)NO [Compound D12, 2-(2-(3-fluorobenzoyl)-1,2,3,4-tetrahydro-9H-pyrido[3,4-b]indol-9-yl)-N-hydroxyacetamide] | synergistically improved the antiproliferative activity of chemotherapeutic drugs | synergistically improved the antiproliferative activity of chemotherapeutic drugs | decreased APN expression | decreased APN expression | higher apoptotic rate | higher apoptotic rate | significant decrease in the number of tumor spheres | significant decrease in the number of tumor spheres | decreased the tumor sphere and colony formation abilities | decreased the tumor sphere and colony formation abilities | improved the anticancer effect of PTX | 54.02 |  |  |  |  |  | 
4 | 7.74 ± 0.33 | 74.3 ± 6.16 | O=C(Cn1c2c(c3ccccc31)CCN(C(=O)c1ccccc1F)C2)NO [Compound D14, 2-(2-(2-fluorobenzoyl)-1,2,3,4-tetrahydro-9H-pyrido[3,4-b]indol-9-yl)-N-hydroxyacetamide] | synergistically improved the antiproliferative activity of chemotherapeutic drugs | synergistically improved the antiproliferative activity of chemotherapeutic drugs | decreased APN expression | decreased APN expression | higher apoptotic rate | higher apoptotic rate | significant decrease in the number of tumor spheres | significant decrease in the number of tumor spheres | decreased the tumor sphere and colony formation abilities | decreased the tumor sphere and colony formation abilities | improved the anticancer effect of PTX | 31.32 |  |  |  |  |  | 
5 | 7.9 ± 0.27 | 74.5 ± 4.66 | Cc1ccccc1C(=O)N1CCc2c(n(CC(=O)NO)c3ccccc23)C1 [Compound D16, N-hydroxy-2-(2-(2-methylbenzoyl)-1,2,3,4-tetrahydro-9H-pyrido[3,4-b]indol-9-yl)acetamide] | synergistically improved the antiproliferative activity of chemotherapeutic drugs | synergistically improved the antiproliferative activity of chemotherapeutic drugs | decreased APN expression | decreased APN expression | higher apoptotic rate | higher apoptotic rate | significant decrease in the number of tumor spheres | significant decrease in the number of tumor spheres | decreased the tumor sphere and colony formation abilities | decreased the tumor sphere and colony formation abilities | improved the anticancer effect of PTX | 14.15 |  |  |  |  |  | 
